The values that follow come from US20240261294A1, “METHOD FOR TREATING IDH INHIBITOR-RESISTANT SUBJECTS” (Eli Lilly and Company, priority 2021, published 2024).

Assay [1] deals with T1, IDH2 R140L (Homo sapiens, UniProt P48735, R140L).
T1 construct: expressed in transfected cells; host or cells: U-87 MG
T1 sequence (P48735 40-452 R140L): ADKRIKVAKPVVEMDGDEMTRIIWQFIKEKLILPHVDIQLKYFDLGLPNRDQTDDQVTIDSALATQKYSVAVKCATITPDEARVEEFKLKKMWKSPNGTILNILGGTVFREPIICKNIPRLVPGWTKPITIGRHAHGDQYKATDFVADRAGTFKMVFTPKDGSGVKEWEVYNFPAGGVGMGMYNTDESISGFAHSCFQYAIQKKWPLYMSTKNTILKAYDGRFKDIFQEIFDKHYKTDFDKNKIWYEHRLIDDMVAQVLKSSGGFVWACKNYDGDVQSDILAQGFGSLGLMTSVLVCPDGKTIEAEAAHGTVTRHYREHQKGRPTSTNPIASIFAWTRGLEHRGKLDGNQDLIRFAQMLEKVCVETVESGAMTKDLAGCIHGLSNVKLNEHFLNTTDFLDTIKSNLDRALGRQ
The assay can be described thus: Inhibition of 2-HG production in IDH2 mutant U-87 MG cells. It is filed as cell-based. Particulars: 16 hours incubation, 50K cells/well, 100 μl media/well, read-out: Relative IC50 (nM) Mean, inhibition of 2-HG production.

Assay [2] concerns the target T2, IDH2 R140Q + Q316E trans (Homo sapiens, UniProt P48735, Q316E/R140Q).
T2 construct: expressed in transfected cells; host or cells: U-87 MG
T2 sequence (P48735 40-452 R140Q): T1 sequence (P48735 40-452 R140L) with L101Q
T2 sequence (P48735 40-452 Q316E): T1 sequence (P48735 40-452 R140L) with L101R, Q277E
The description is as above. It counts as cell-based.

Numbering of substitutions follows the chain as printed. Read-outs that look alike come from different tables or passages of the source.

With `C=CC(=O)N1CCN([C@@H](CC2CC2)c2ccc([C@H](C)Nc3ncc4c(n3)N(CC)C(=O)OC4)cc2)CC1` [Compound A, 7-[[(1S)-1-[4-[(1S)-2-cyclopropyl-1-(4-prop-2-enoylpiperazin-1-yl)ethyl]phenyl]ethyl]amino]-1-ethyl-4H-pyrimido[4,5-d][1,3]oxazin-2-one], the concentration for half-maximal inhibition (IC50) in assay [1] stood at 243 nM; in assay [2] (IDH2 R140Q + Q316E trans, 72 hours incubation, 12.5K cells/well, 150 μl media/well, read-out: IC50, inhibition of 2-HG production), 5.84 nM; in assay [2] (IDH2 R140Q_Q316E trans, 16 hours incubation, 50K cells/well, 100 μl media/well, read-out: Relative IC50 (nM) Mean, inhibition of 2-HG production), 23 nM.

As a reminder, the IC50 is the concentration needed to halve the response being measured.
